Source: publication PMC11145891, “Effect of 2-hydroxyethylammonium carboxylate protic ionic liquids on the solubility and cytotoxicity of indomethacin” (BMC Chemistry, 2024)
Read-outs that look alike come from different tables or passages of the source.

What was measured:
[1] = system: HT29 cell line
Protocol: (§1) Pastor Institute of Iran generously provided the human colon adenocarcinoma cell line HT29. The cell lines were cultured in RPMI’s medium supplemented with 10% fetal bovine serum (FBS) and Culture medium containing FBS. The cell cultures were incubated at 37 °C in a humidified environment of 5% carbon dioxide—CO2.
(§2) The colorimetric MTT assay was used to assess the cytotoxic activity of PILs (Twentyman and Luscombe 1987). HT29 cells were seeded in 96-well plates and allowed to conform for the first step. The cells were then incubated for 24 h at 37 °C in 5% CO2 in a total of six concentrations (3–150 µg mL^−1) of the studied compounds diluted in RPMI medium (previously sterilized with a 0.22 m syringe filter). After 24 h of exposure, each well was filled with 50 µL of MTT solution (3 (4,5-dimethylthiazol-2-yl)-2,5-diphenyltetrazolium bromide (MTT) from Sigma-Aldrich) (2 mg. mL in PBS, pH 7.2). To dissolve the formazan crystals, the medium was substituted with 150 µL of dimethyl sulfoxide (DMSO) after 4 h of incubation.
(§3) The plate was shaking for around 1 h while being held out of direct sunlight. Cell viability was measured through the optical density of reduced MTT at 570–630 nm using a microplate reader (Synergy HT from BioTeK Instruments Inc., Winooski, VT, USA). The percentage of viable cells was calculated as the ratio between the absorbance of treated and control cells. Similarly, IC50 was estimated using a non-linear regression, logistic equation to determine the chemical concentration that causes a 50% reduction in cell viability [27].

[2] = system: HT29 cell line; experiment: MTT assay cytotoxicity of PILs; details: for IC50: MTT, 24 h exposure
Protocol: as §1, §2, §3

[3] = Apparent thermodynamic functions of IMC dissolution (van't Hoff and Gibbs equations); type: physicochemical
Description: The van’t Hoff and Gibbs equations were employed for calculating the Thm = 305.55 K (the mean harmonic temperature), which was derived by considering into calculate temperatures (298.15 to 313.15 K). The thermodynamic parameters of dissolution have been evaluated by employing the apparent thermodynamic functions. […] On the other hand, the van’t Hoff plot, which is a plot of lnx1 versus 1/T-1/Thm , can be utilized to figure out:14 ΔHsoln∘=-R∂lnx1/∂1/T-1/ThmP, 15 ΔGsoln∘=-RThm×intercept.
In this manner, the values of ΔHsoln∘ and ΔGsoln∘ have been evaluated utilizing the slope and intercept of Eqs. 14 and 15. Furthermore, the following equation [47, 48] was applied to evaluate the standard molar entropy of dissolution, ΔSsoln∘ [49]:16 ΔSsoln∘=ΔHsoln∘-ΔGsoln∘/Thm.
Finally, in the IMC dissolution process, Eqs.

[4] = XRD of residual solids from solubility measurement; type: physicochemical; details: residual solids from saturated aqueous PIL solutions vs raw IMC
Description: The XRD diffractograms of raw IMC crystals together with residuals crystals sampled from solubility measurement are depicted in Figure S4. (supporting information). It should be noted that quantitative analysis of phases in samples with preferential orientation or texture is not possible using traditional methods such as direct comparison. […] First, the stability of IMC in the presence of PILs was investigated. The analysis of the bottom phase(s) after the solubility experiments have been presented. There are different type of factors affecting the peak intensity of XRD. These type of factors are listed as: • The nature of the sample under test (single-phase or multiphase of the sample). • Powder samples have less peak intensity than bulk samples. (Due to the effect of absorption factor). • Grain size: the larger the grain size, the higher the peak intensity. For example, considering samples with the same chemical composition, which have been annealed at different times of heat treatment, a sample will have a higher peak intensity with a longer heat treatment time (longer annealing time = larger grain size). It should be noted that the smaller the grain size, the higher the […] is the amorphous part of the material, and as a result the background scatter in the diffraction pattern will increase and the peak intensity would decrease.

[5] = type: physicochemical
Protocol: Before obtaining dissolution data, a calibration curve for Indomethacin (IMC) was established (Fig. 2). A double-beam T80 UV-vis spectrometer (Japan) and a mixture of ethanol and distilled deionized water were employed to dissolve a specific amount of IMC to generate the calibration curve. Numerous methods were utilized to determine the experimental solubility data, encompassing the shake-flask method. […] Then, the excess amounts of IMC were added to glass vials holding a particular quantity of water and PILs, which were stirred and kept for 3 days in a water bath thermostat until equilibrium was reached. The temperature was adjusted with a precision of 0.01 K using an ED water bath thermostat (Julabo Co., Germany). After 3 days, the liquid and solid phases were separated employing a Hettich D-7200 centrifuge. At the next step, the liquid phase was appropriately diluted with an ethanol + water solution after filtering the saturated solutions through a 0.22 μm PTFE filter. The concentration of IMC in the solutions was measured by utilizing the calibration curve and a T80 UV-vis spectrometer (Japan). The mole fraction of IMC (x1) in the aqueous solutions containing PILs was determined, for the IMC + water, IMC + water combination, and IMC + PILs systems using the Eq. 1 [25, 26]:1 x1=[…]3, where Wi and Mi, respectively, indicate the weight fractions and molar mass weight fractions of each system component (i).

[6] = cited from earlier work
[7] = aq. MEAA, w3 = 0.0000, Thm = 305.55 K
[8] = aq. MEAA, w3 = 0.0200, Thm = 305.55 K
[9] = aq. MEAA, w3 = 0.0500, Thm = 305.55 K
[10] = aq. MEAA, w3 = 0.0700, Thm = 305.55 K
[11] = aq. MEAA, w3 = 0.1000, Thm = 305.55 K
[12] = aq. MEAA, w3 = 0.1500, Thm = 305.55 K
[13] = aq. MEAA, w3 = 0.2000, Thm = 305.55 K
[14] = aq. MEAL, w3 = 0.0000, Thm = 305.55 K
[15] = aq. MEAL, w3 = 0.0200, Thm = 305.55 K
[16] = aq. MEAL, w3 = 0.0500, Thm = 305.55 K
[17] = aq. MEAL, w3 = 0.0700, Thm = 305.55 K
[18] = aq. MEAL, w3 = 0.1000, Thm = 305.55 K
[19] = aq. MEAL, w3 = 0.1500, Thm = 305.55 K
[20] = aq. MEAL, w3 = 0.2000, Thm = 305.55 K
[21] = aq. MEAP, w3 = 0.0000, Thm = 305.55 K
[22] = aq. MEAP, w3 = 0.0200, Thm = 305.55 K
[23] = aq. MEAP, w3 = 0.0500, Thm = 305.55 K
[24] = aq. MEAP, w3 = 0.0700, Thm = 305.55 K
[25] = aq. MEAP, w3 = 0.1000, Thm = 305.55 K
[26] = aq. MEAP, w3 = 0.1500, Thm = 305.55 K
[27] = aq. MEAP, w3 = 0.2000, Thm = 305.55 K

CC(=O)O.NCCO [MEAA, 2-Hydroxyethylammonium acetate]
cytotoxic effect category [1]: moderate | IC50 [2]: 26.40 ± 0.006 µg/mL

CCC(=O)O.NCCO [MEAP, 2-Hydroxyethylammonium propionate]
cytotoxic effect category [2]: moderate | IC50 [2]: 67.19 ± 0.049 µg/mL

CC(O)C(=O)O.NCCO (centres unmarked) [MEAL, 2-Hydroxyethylammonium lactate]
cytotoxic effect category [1]: moderate | IC50 [2]: 79.23 ± 0.001 µg/mL

COc1ccc2c(c1)c(CC(=O)O)c(C)n2C(=O)c1ccc(Cl)cc1 [Indomethacin]
ΔGsoln∘ [3, 7]: 8.265 kcal/mol | ΔHsoln∘ [3, 7]: 6.052 kcal/mol | ξH [3, 7]: 73.23% | ξTS [3, 7]: 26.77% | ΔGsoln∘ [3, 8]: 6.804 kcal/mol | ΔHsoln∘ [3, 8]: 4.345 kcal/mol | ξH [3, 8]: 63.86% | ξTS [3, 8]: 36.14% | ΔGsoln∘ [3, 9]: 6.671 kcal/mol | ΔHsoln∘ [3, 9]: 3.662 kcal/mol | ξH [3, 9]: 54.90% | ξTS [3, 9]: 45.10% | ΔGsoln∘ [3, 10]: 6.604 kcal/mol | ΔHsoln∘ [3, 10]: 2.13 kcal/mol | ξH [3, 10]: 32.21% | ξTS [3, 10]: 67.79% | ΔGsoln∘ [3, 11]: 6.561 kcal/mol | ΔHsoln∘ [3, 11]: 2.55 kcal/mol | ξH [3, 11]: 38.86% | ξTS [3, 11]: 61.14% | ΔGsoln∘ [3, 12]: 6.422 kcal/mol | ΔHsoln∘ [3, 12]: 4.572 kcal/mol | ξH [3, 12]: 71.17% | ξTS [3, 12]: 28.83% | ΔGsoln∘ [3, 13]: 6.255 kcal/mol | ΔHsoln∘ [3, 13]: 2.536 kcal/mol | ξH [3, 13]: 40.54% | ξTS [3, 13]: 59.46% | ΔGsoln∘ [3, 14]: 8.265 kcal/mol | ΔHsoln∘ [3, 14]: 6.052 kcal/mol | ξH [3, 14]: 73.23% | ξTS [3, 14]: 26.77% | ΔGsoln∘ [3, 15]: 6.028 kcal/mol | ΔHsoln∘ [3, 15]: 5.282 kcal/mol | ξH [3, 15]: 87.61% | ξTS [3, 15]: 12.39% | TMΔSsoln∘ [3, 16]: 0.598 kcal/mol | ΔGsoln∘ [3, 16]: 5.746 kcal/mol | ΔHsoln∘ [3, 16]: 6.343 kcal/mol | ξH [3, 16]: 91.39% | ξTS [3, 16]: 8.61% | TMΔSsoln∘ [3, 17]: 2.457 kcal/mol | ΔGsoln∘ [3, 17]: 5.633 kcal/mol | ΔHsoln∘ [3, 17]: 8.09 kcal/mol | ξH [3, 17]: 76.70% | ξTS [3, 17]: 23.30% | TMΔSsoln∘ [3, 18]: 0.911 kcal/mol | ΔGsoln∘ [3, 18]: 5.471 kcal/mol | ΔHsoln∘ [3, 18]: 6.381 kcal/mol | ξH [3, 18]: 87.50% | ξTS [3, 18]: 12.50% | TMΔSsoln∘ [3, 19]: 2 kcal/mol | ΔGsoln∘ [3, 19]: 5.208 kcal/mol | ΔHsoln∘ [3, 19]: 7.206 kcal/mol | ξH [3, 19]: 78.28% | ξTS [3, 19]: 21.72% | TMΔSsoln∘ [3, 20]: 0.614 kcal/mol | ΔGsoln∘ [3, 20]: 5.036 kcal/mol | ΔHsoln∘ [3, 20]: 5.652 kcal/mol | ξH [3, 20]: 90.18% | ξTS [3, 20]: 9.82% | ΔGsoln∘ [3, 21]: 8.265 kcal/mol | ΔHsoln∘ [3, 21]: 6.052 kcal/mol | ξH [3, 21]: 73.23% | ξTS [3, 21]: 26.77% | TMΔSsoln∘ [3, 22]: 0.75 kcal/mol | ΔGsoln∘ [3, 22]: 6.965 kcal/mol | ΔHsoln∘ [3, 22]: 7.715 kcal/mol | ξH [3, 22]: 91.14% | ξTS [3, 22]: 8.86% | TMΔSsoln∘ [3, 23]: 1.91 kcal/mol | ΔGsoln∘ [3, 23]: 6.74 kcal/mol | ΔHsoln∘ [3, 23]: 8.65 kcal/mol | ξH [3, 23]: 81.92% | ξTS [3, 23]: 18.08% | TMΔSsoln∘ [3, 24]: 7.481 kcal/mol | ΔGsoln∘ [3, 24]: 6.616 kcal/mol | ΔHsoln∘ [3, 24]: 14.1 kcal/mol | ξH [3, 24]: 65.33% | ξTS [3, 24]: 34.67% | TMΔSsoln∘ [3, 25]: 11.89 kcal/mol | ΔGsoln∘ [3, 25]: 6.456 kcal/mol | ΔHsoln∘ [3, 25]: 18.34 kcal/mol | ξH [3, 25]: 60.68% | ξTS [3, 25]: 39.32% | TMΔSsoln∘ [3, 26]: 14.01 kcal/mol | ΔGsoln∘ [3, 26]: 6.066 kcal/mol | ΔHsoln∘ [3, 26]: 20.07 kcal/mol | ξH [3, 26]: 58.90% | ξTS [3, 26]: 41.10% | TMΔSsoln∘ [3, 27]: 9.183 kcal/mol | ΔGsoln∘ [3, 27]: 5.786 kcal/mol | ΔHsoln∘ [3, 27]: 14.97 kcal/mol | ξH [3, 27]: 61.98% | ξTS [3, 27]: 38.02% | solid phase stability in solubility measurements (XRD) [4]: no phase transformation | IMC solubility in MEAL PIL relative to water [5]: more than 200 times | increase of IMC solubility in PILs compared to pure water [5]: ~200 times | solubility (mole fraction) [5]: 20.71 × 10^−5 mole fraction | solubility (mole fraction) ([6]; ethanol/water (wETOH = 0.2), 298.15 K, ref Peña et al.): 1.13 × 10^−5 mole fraction | solubility (mole fraction) ([6]; propylene glycol/water, 0.4 weight fraction propylene glycol, 303.15 K, ref Holguín et al. 52): 7.61 × 10^–6 mole fraction
